These are literature values, as cited in patent publication US20100172993A1, “PARTICLES FOR DELIVERY OF ACTIVE INGREDIENTS, PROCESS OF MAKING AND COMPOSITIONS THEREOF” (priority 2006, published 2010).

The conditions of the series: topical insect repellent.

In the case of `CCN(CC)C(=O)c1ccccc1` [NN Diethyl Benzamide], the “Absorption of the active ingredient in the blood plasma after dermal application” value is “no absorption of the active ingredient in the blood plasma”.
